ChEMBL document CHEMBL1201862, “PubChem BioAssay data set” (2004)
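Briefly, cells in 96-well plates were exposed to five compound concentrations for 48 h, and endpoints were estimated by linear interpolation. Abbreviation: GI50, concentration required for 50% inhibition of growth.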 Calls of active or inactive are those of the source. Rule as the data show it: active = GI50 up to about 1.1 µM and inactive = higher.

Assays:
Experiment in all cases: growth of human tumour cells (NCI), 48 h
K562 = test system: K562
M14 = test system: M14
U-251 = test system: U-251
UACC-257 = test system: UACC-257
SN12C = test system: SN12C
RPMI-8226 = test system: RPMI-8226
SK-MEL-5 = test system: SK-MEL-5
HCC 2998 = test system: HCC 2998
Hs-578T = test system: Hs-578T
CCRF-CEM = test system: CCRF-CEM
SF-295 = test system: SF-295
SF-268 = test system: SF-268
UO-31 = test system: UO-31
MOLT-4 = test system: MOLT-4
NCI/ADR-RES = test system: NCI/ADR-RES
T47D = test system: T47D
HOP-92 = test system: HOP-92
LOX IMVI = test system: LOX IMVI
NCI-H522 = test system: NCI-H522
A498 = test system: A498

With `COc1ccc(-c2nc(O)c3ccccc3n2)cc1OC` the GI50 (K562) was > 100 µM (inactive), the GI50 (M14) was > 100 µM (inactive) and the GI50 (U-251) was 23.1 µM (inactive). For the same compound, the GI50 (UACC-257) was > 100 µM (inactive), the GI50 (SN12C) was 26.5 µM (inactive) and the GI50 (RPMI-8226) was 54.2 µM (inactive). For the same compound, the GI50 (SK-MEL-5) was > 100 µM (inactive), the GI50 (HCC 2998) was > 100 µM (inactive) and the GI50 (Hs-578T) was 29.2 µM (inactive). For the same compound, the GI50 (CCRF-CEM) was > 100 µM (inactive), the GI50 (SF-295) was 50.8 µM (inactive) and the GI50 (SF-268) was 25.2 µM (inactive). For the same compound, the GI50 (UO-31) was > 100 µM (inactive), the GI50 (MOLT-4) was > 100 µM (inactive) and the GI50 (NCI/ADR-RES) was 28.2 µM (inactive). For the same compound, the GI50 (T47D) was 30.3 µM (inactive).
For `O=c1c2cc([N+](=O)[O-])cnc2sn1-c1ccc(Oc2ccccc2)cc1`, the GI50 (HOP-92) was 23 µM (inactive), the GI50 (M14) was 53.8 µM (inactive) and the GI50 (LOX IMVI) was 44.9 µM (inactive). The GI50 (U-251) was 29.9 µM (inactive), the GI50 (UACC-257) was > 100 µM (inactive) and the GI50 (SN12C) was > 100 µM (inactive). For the same compound, the GI50 (RPMI-8226) was 41.5 µM (inactive), the GI50 (SK-MEL-5) was 88.5 µM (inactive) and the GI50 (HCC 2998) was > 100 µM (inactive). The GI50 (Hs-578T) was 18.6 µM (inactive), the GI50 (CCRF-CEM) was 26.9 µM (inactive) and the GI50 (NCI-H522) was 4.66 µM (inactive). The GI50 (SF-295) was 31 µM (inactive), the GI50 (SF-268) was 39.6 µM (inactive) and the GI50 (UO-31) was 56.6 µM (inactive). For the same compound, the GI50 (MOLT-4) was > 100 µM (inactive), the GI50 (NCI/ADR-RES) was 32.8 µM (inactive) and the GI50 (T47D) was 10.8 µM (inactive).
`COc1nc(C#CCCCC#N)nc(OC)n1` was tested, and the GI50 (K562) was 17.9 µM (inactive), the GI50 (M14) was 22.2 µM (inactive) and the GI50 (LOX IMVI) was 2.08 µM (inactive). For the same compound, the GI50 (U-251) was 13.4 µM (inactive), the GI50 (UACC-257) was 18.9 µM (inactive) and the GI50 (SN12C) was 16.4 µM (inactive). For the same compound, the GI50 (SK-MEL-5) was 13.3 µM (inactive), the GI50 (A498) was 20.7 µM (inactive) and the GI50 (Hs-578T) was 40.8 µM (inactive). The GI50 (NCI-H522) was 14.2 µM (inactive), the GI50 (SF-295) was 28.2 µM (inactive) and the GI50 (SF-268) was 27.3 µM (inactive). For the same compound, the GI50 (UO-31) was 11.1 µM (inactive), the GI50 (MOLT-4) was 14.4 µM (inactive) and the GI50 (NCI/ADR-RES) was 28.5 µM (inactive). For the same compound, the GI50 (T47D) was 35.4 µM (inactive).
With `Cc1ccc(C(=N)c2ccccc2Cc2cccc3ccccc23)c2ccccc12` the GI50 (K562) was 80 µM (inactive), the GI50 (HOP-92) was > 100 µM (inactive) and the GI50 (M14) was 32.3 µM (inactive). The GI50 (LOX IMVI) was 80.2 µM (inactive), the GI50 (U-251) was > 100 µM (inactive) and the GI50 (UACC-257) was 33.1 µM (inactive). The GI50 (SN12C) was > 100 µM (inactive), the GI50 (SK-MEL-5) was 31.9 µM (inactive) and the GI50 (A498) was > 100 µM (inactive). For the same compound, the GI50 (Hs-578T) was > 100 µM (inactive), the GI50 (CCRF-CEM) was 82.6 µM (inactive) and the GI50 (NCI-H522) was 56.5 µM (inactive). The GI50 (SF-295) was 71.4 µM (inactive), the GI50 (SF-268) was > 100 µM (inactive) and the GI50 (UO-31) was 44.8 µM (inactive). The GI50 (MOLT-4) was 58.7 µM (inactive), the GI50 (NCI/ADR-RES) was > 100 µM (inactive) and the GI50 (T47D) was 65.3 µM (inactive).
In the case of `N/C(=N\c1ccccc1)c1ccccc1N`, the GI50 (K562) is reported as > 100 µM (inactive), the GI50 (HOP-92) is reported as 2.51 µM (inactive) and the GI50 (M14) is reported as > 100 µM (inactive). For the same compound, the GI50 (LOX IMVI) was > 100 µM (inactive), the GI50 (U-251) was > 100 µM (inactive) and the GI50 (UACC-257) was > 100 µM (inactive). The GI50 (RPMI-8226) was > 100 µM (inactive), the GI50 (SK-MEL-5) was > 100 µM (inactive) and the GI50 (A498) was > 100 µM (inactive). The GI50 (HCC 2998) was > 100 µM (inactive), the GI50 (Hs-578T) was > 100 µM (inactive) and the GI50 (CCRF-CEM) was 40.6 µM (inactive). For the same compound, the GI50 (SF-295) was > 100 µM (inactive), the GI50 (SF-268) was > 100 µM (inactive) and the GI50 (UO-31) was > 100 µM (inactive). For the same compound, the GI50 (MOLT-4) was > 100 µM (inactive) and the GI50 (NCI/ADR-RES) was > 100 µM (inactive).
With `O=C(c1ccccc1)N1OCCC1Nc1ccc(Br)cc1` (stereo not drawn) the GI50 (K562) was 0.423 µM (active), the GI50 (M14) was 4.99 µM (inactive) and the GI50 (LOX IMVI) was > 10 µM (inactive). For the same compound, the GI50 (UACC-257) was > 10 µM (inactive), the GI50 (SN12C) was > 10 µM (inactive) and the GI50 (RPMI-8226) was 4.71 µM (inactive). For the same compound, the GI50 (SK-MEL-5) was 6.97 µM (inactive), the GI50 (HCC 2998) was 3.85 µM (inactive) and the GI50 (Hs-578T) was > 10 µM (inactive). The GI50 (CCRF-CEM) was 3.8 µM (inactive), the GI50 (NCI-H522) was > 10 µM (inactive) and the GI50 (SF-295) was 2.08 µM (inactive). For the same compound, the GI50 (SF-268) was 5.21 µM (inactive), the GI50 (UO-31) was 1.87 µM (inactive) and the GI50 (MOLT-4) was 4 µM (inactive). For the same compound, the GI50 (NCI/ADR-RES) was 5.43 µM (inactive) and the GI50 (T47D) was > 10 µM (inactive).
With `CCOC(=O)/C(C[C@H]1OC(C)(C)O[C@@H]1[C@H]1COC(C)(C)O1)=N/O` the GI50 (K562) was > 100 µM (inactive), the GI50 (HOP-92) was > 100 µM (inactive) and the GI50 (M14) was > 100 µM (inactive). For the same compound, the GI50 (LOX IMVI) was > 100 µM (inactive), the GI50 (U-251) was > 100 µM (inactive) and the GI50 (UACC-257) was > 100 µM (inactive). For the same compound, the GI50 (SN12C) was > 100 µM (inactive), the GI50 (RPMI-8226) was > 100 µM (inactive) and the GI50 (SK-MEL-5) was > 100 µM (inactive). For the same compound, the GI50 (A498) was > 100 µM (inactive), the GI50 (HCC 2998) was > 100 µM (inactive) and the GI50 (Hs-578T) was > 100 µM (inactive). The GI50 (CCRF-CEM) was > 100 µM (inactive), the GI50 (NCI-H522) was > 100 µM (inactive) and the GI50 (SF-295) was > 100 µM (inactive). For the same compound, the GI50 (SF-268) was > 100 µM (inactive), the GI50 (UO-31) was > 100 µM (inactive) and the GI50 (MOLT-4) was > 100 µM (inactive). For the same compound, the GI50 (NCI/ADR-RES) was > 100 µM (inactive).
In the case of `CCCCCCCCCCCCCC1=C(O)C(=O)C(CC2=C(O)C(=O)C(CCCCCCCCCCCCC)=C(O)C2=O)=C(O)C1=O`, the GI50 (K562) is reported as 66.1 µM (inactive), the GI50 (HOP-92) is reported as 75.2 µM (inactive) and the GI50 (M14) is reported as > 100 µM (inactive). The GI50 (LOX IMVI) was > 100 µM (inactive), the GI50 (U-251) was 68.2 µM (inactive) and the GI50 (UACC-257) was > 100 µM (inactive). The GI50 (SN12C) was > 100 µM (inactive), the GI50 (SK-MEL-5) was > 100 µM (inactive) and the GI50 (A498) was 90.4 µM (inactive). The GI50 (Hs-578T) was 36 µM (inactive), the GI50 (CCRF-CEM) was 98.2 µM (inactive) and the GI50 (NCI-H522) was > 100 µM (inactive). The GI50 (SF-295) was 52 µM (inactive), the GI50 (SF-268) was 46.3 µM (inactive) and the GI50 (UO-31) was > 100 µM (inactive). The GI50 (MOLT-4) was > 10 µM (inactive) and the GI50 (T47D) was > 100 µM (inactive).
